{"source": "patent US7759384B2", "about": "“Carvedilol phosphate salts and/or solvates thereof, corresponding compositions, and/or methods of treatment” (SmithKline Beecham (Cork) Limited, priority 2002, dated 2010)", "key": {"[1]": {"conditions": "cited from earlier work"}, "[2]": {"assay": "aqueous solubility of carvedilol phosphate salts compared with free base and other salts", "assay_type": "physicochemical", "conditions": "novel crystalline forms"}}, "note": "Where two headings read alike, the source gives them in different places.", "data": [{"smiles": "COc1ccccc1OCCNCC(O)COc1cccc2[nH]c3ccccc3c12", "note": "(racemic) [Carvedilol]", "values": [{"measurement": "solubility", "setting": "[1]; neutral or alkaline media, above a pH of 9.0", "result": "< 1", "unit": "µg/mL"}, {"measurement": "saturation solubility", "setting": "[1]; pH=5, room temperature", "result": "about 100 μg/mL"}, {"measurement": "saturation solubility", "setting": "[1]; pH=7, room temperature", "result": "about 23 μg/mL"}]}, {"smiles": "COc1ccccc1OCCNCC(O)COc1cccc2[nH]c3ccccc3c12.O=P(O)(O)O", "note": "(centres unmarked) [carvedilol dihydrogen phosphate]", "values": [{"measurement": "solubility compared to the free base of carvedilol", "setting": "[2]", "result": "much higher solubility"}]}, {"smiles": "COc1ccccc1OCCNCC(O)COc1cccc2[nH]c3ccccc3c12.Cl", "note": "(centres unmarked) [hydrochloride salt of carvedilol]", "values": [{"measurement": "solubility in acidic medium", "setting": "[1]; salt generated in situ in acidic medium, which simulates gastric fluid", "result": "less soluble"}]}]}
